{"source": "patent US6531468B2", "about": "“Diazabicyclooctane derivatives and therapeutic uses thereof” (Pfizer Inc, priority 2000, dated 2003)", "note": "Counter-ions that a name gives are not always drawn."}
{"compound": "Fc1ccc(N2CC3CCC2CN3)cc1", "note": "(stereo not shown) (as salt: salt)", "values": [{"measurement": "melting point", "value": "154 to 156", "unit": "°C"}]}
